Experimental data published in patent US20240199647A1, “ANTI-VIRAL COMPOUNDS” (Aligos Therapeutics, Inc., priority 2022, published 2024).

Key:
[1] = test system: human beta-coronavirus OC43; experiment: OC43 Coronavirus Assay in HeLa cells (antiviral, cytopathic effect, cell-titer-glo); format: cell-based; conditions: Betacoronavirus 1, OC43, HeLa, Table B; OC43 coronavirus in HeLa cells, class symbols; read-out: EC50
[2] = Cytotoxicity in HeLa cells without addition of OC43 virus (in parallel); conditions: human, HeLa cells, without OC43 virus
in vitro = conditions: human
SARS-Cov-2 3CLpro = SARS-Cov-2 3CLpro (Severe acute respiratory syndrome coronavirus 2, UniProt P0DTD1); experiment: biochemical; conditions: Table A, class symbols, read-out: SARS-Cov-2 (IC50)
[3] = test system: SARS-CoV-2 B.1.1.7 lineage; experiment: microbe, parasite or virus in culture; format: cell-based; conditions: Severe acute respiratory syndrome coronavirus 2; Table C; SARS-CoV-2 B.1.1.7 in A549-dual_ACE2_TMPRSS2 cells, class symbols; read-out: A549-dual_ACE2_TMPRSS2 (EC50)

Compound | EC50 [1] [µM] | CC50 at 6 days [2] [µM] | CC50 (in vitro) [µM] | IC50 (SARS-Cov-2 3CLpro) [µM] | EC50 [3] [µM]
C[C@H](NC(=O)C(F)(F)F)C(=O)N(C)[C@@H](Cc1ccc(F)cc1)C(=O)N1C[C@@]2(C[C@H]1C#N)Oc1cccnc1NC2=O [Compound 181] | 1 to 10 | > 10 | > 1 | < 0.02 | 0.1 to 1
CN(C(=O)[C@H](CC1CC1)NC(=O)C(F)(F)F)[C@@H](CC1CC1)C(=O)N1C[C@@]2(C[C@H]1C#N)Oc1ccccc1NC2=O [Compound 182] | < 0.1 | > 10 | > 1 | < 0.02 | < 0.1
C[C@H](NC(=O)C(F)(F)F)C(=O)N(C)[C@@H](CC1(C)CC1)C(=O)N1C[C@@]2(C[C@H]1C#N)Oc1cccnc1NC2=O [Compound 183] | < 0.1 | > 10 | > 1 | < 0.02 | 0.1 to 1
CN(C(=O)[C@H](CC1CC1)NC(=O)C(F)(F)C(F)(F)F)[C@@H](CC1CC1)C(=O)N1C[C@@]2(C[C@H]1C#N)Oc1ncccc1NC2=O [Compound 184] | < 0.1 | > 10 | > 1 | < 0.02 | < 0.1
CN(C(=O)[C@H](CC1CC1)NC(=O)C1(F)CC1)[C@@H](CC1CC1)C(=O)N1C[C@@]2(C[C@H]1C#N)Oc1ncccc1NC2=O [Compound 185] | < 0.1 | > 10 | > 1 | < 0.02 | 0.1 to 1
CN(C(=O)[C@H](CC1CC(F)(F)C1)NC(=O)C(F)(F)F)[C@@H](CC1CC1)C(=O)N1C[C@@]2(C[C@H]1C#N)Oc1cccnc1NC2=O [Compound 187] | < 0.1 | > 10 | > 1 | < 0.02 | 0.1 to 1
CN(C(=O)[C@H](CC(C)(C)C)NC(=O)C(F)(F)F)[C@@H](CC1CC1)C(=O)N1C[C@@]2(C[C@H]1C#N)Oc1cccnc1NC2=O [Compound 188] | < 0.1 | > 10 | > 1 | < 0.02 | < 0.1
CN(C(=O)[C@H](CC(F)(F)F)NC(=O)C(F)(F)F)[C@@H](CC1CC1)C(=O)N1C[C@@]2(C[C@H]1C#N)Oc1cccnc1NC2=O [Compound 189] | 0.1 to 1 | > 10 | > 1 | 0.02 to 0.2 | 0.1 to 1
CN(C(=O)[C@H](COC(C)(C)C)NC(=O)C(F)(F)F)[C@@H](CC1CC1)C(=O)N1C[C@@]2(C[C@H]1C#N)Oc1cccnc1NC2=O [Compound 190] | < 0.1 | > 10 | > 1 | < 0.02 | 0.1 to 1
CN(C(=O)[C@H](COCc1ccccc1)NC(=O)C(F)(F)F)[C@@H](CC1CC1)C(=O)N1C[C@@]2(C[C@H]1C#N)Oc1cccnc1NC2=O [Compound 191] | < 0.1 | > 10 | > 1 | < 0.02 | 0.1 to 1
C[C@H](OCc1ccccc1)[C@H](NC(=O)C(F)(F)F)C(=O)N(C)[C@@H](CC1CC1)C(=O)N1C[C@@]2(C[C@H]1C#N)Oc1cccnc1NC2=O [Compound 192] | 0.1 to 1 | > 10 | > 1 | 0.02 to 0.2 | 0.1 to 1
C[C@H](c1ccccc1)[C@H](NC(=O)C(F)(F)F)C(=O)N(C)[C@@H](CC1CC1)C(=O)N1C[C@@]2(C[C@H]1C#N)Oc1cccnc1NC2=O [Compound 193] | 0.1 to 1 | > 10 | > 1 | 0.02 to 0.2 | 0.1 to 1
CN(C(=O)[C@@H](NC(=O)C(F)(F)F)C1CC1)[C@@H](CC1CC1)C(=O)N1C[C@@]2(C[C@H]1C#N)Oc1cc(F)cc(F)c1NC2=O [Compound 194] | < 0.1 | > 10 | > 1 | < 0.02 | < 0.1
C[C@H](NC(=O)c1ccc(F)cc1)C(=O)N(C)[C@@H](CC1CC1)C(=O)N1C[C@@]2(C[C@H]1C#N)Oc1cccnc1NC2=O [Compound 195] | 0.1 to 1 | > 10 | > 1 | < 0.02 | 0.1 to 1
C[C@@H](OC(C)(C)C)[C@H](NC(=O)C(F)(F)F)C(=O)N(C)[C@@H](CC1CC1)C(=O)N1C[C@@]2(C[C@H]1C#N)Oc1cccnc1NC2=O [Compound 196] | < 0.1 | > 10 | > 1 | < 0.02 | 0.1 to 1
CN(C(=O)[C@H](CC1CC1)NS(=O)(=O)c1ccc(F)cc1)[C@@H](CC1CC1)C(=O)N1C[C@@]2(C[C@H]1C#N)Oc1cccnc1NC2=O [Compound 197] | < 0.1 | > 10 | > 1 | < 0.02 | 0.1 to 1
